The target of test [1] is T1, β1-AR (Homo sapiens, UniProt P08588). In words: Summary of pharmacological outcome at the β1-AR (CHO-β1-luciferase or CHO-β1-SPAP cells). The conditions noted are these: for Pharmacological Outcome: CCE/IBS conformation / Pharmacological Outcome: SCE conformation: β1-AR, summary; for Evidence of SCE activation: evidence A–D as outlined in the Introduction, CHO-β1-luciferase or CHO-β1-SPAP cells.

Test [2] deals with T1, β1-AR. Description: CRE-luciferase production in CHO-β1-CRE-luciferase cells. The following applies: for % isop: response compared to 10 μM isoprenaline; for Log EC50: agonist action; for Log KD Secondary Conformation, CGP12177 as agonist: rightward shift of CGP12177 response.
Test [3] concerns the target T1, β1-AR. Description: CRE-SPAP production in CHO-β1-CRE-SPAP cells. It is filed as cell-based. On the set-up: expressed in transfected cells; host or cells: CHO-K1 clonal lines (CHO-β1-CRE-luc, CHO-β1-CRE-SPAP). The conditions noted are these: CHO-β1-CRE-SPAP cells; for % Isoprenaline: response compared with 10 μM isoprenaline; for EC50 / Log EC50: agonist action; for EC50: read-out: Log EC50 (converted). As to the method:
(§1) Many agonist responses were best described by a one-site sigmoidal agonist concentration-response curve.
(§2) In experiments where 3 different fixed concentrations of the same antagonist were used, Schild plots were constructed using equation (6):(6) logDR-1=logB-logKD
(§3) These points were then fitted to a straight line. A slope of 1 then indicates competitive antagonism.[39]
(§4) Where clear partial agonism was present (eg, Fig. 3D), the partial agonist affinity was calculated by the method of Stephenson[40] using equation 7.
(§5) (7) KDpartialagonist=Y×P/1-YwhereY=A2-A1/A3 where [P] is the concentration of the partial agonist, [A1] is the concentration of the agonist at the point where the fixed partial agonist causes the same response, [A2] is the concentration of agonist causing a given response above that achieved by the partial agonist, and [A3] is the concentration of the agonist, in the presence of the partial agonist, causing the same stimulation as [A2].
where N is the percentage of site 1, [A] is the concentration of agonist, and EC1_50 and EC2_50 are the respective EC50 values for the 2 agonist sites.

The target in test [4] is T2, human β2-AR (Homo sapiens, UniProt P07550). Description: CRE-SPAP production in CHO-β2-CRE-SPAP cells. It counts as cell-based. More on the design: expressed in transfected cells; host or cells: CHO-K1 clonal line (CHO-β2-CRE-SPAP). The following applies: for % Isoprenaline: response compared with 10 μM isoprenaline; for EC50 / Log EC50: agonist action. As to the method:
as §1, §2, §3, §4, §5

Test [5] concerns the target T1, β1-AR. Description: 3H-CGP12177 whole-cell binding in CHO-β1-CRE-SPAP cells.
For test [6], the target named is T2, human β2-AR. Description: 3H-CGP12177 whole-cell binding in CHO-β2-CRE-SPAP cells. The following applies: for β2-Selectivity: β2 over β1 affinity from whole-cell binding.
Setting [7] is: CHO-β1-CRE-luciferase cells, given as log EC50 (negative).
The mark [8] stands for this setting: Log KD (Cimaterol as Agonist), rightward shift of cimaterol response, Gaddum, or Stephenson (a).
Where [9] appears, read: CHO-β1-CRE-luciferase cells, Gaddum, or Stephenson for partial agonists (a).
Where [10] appears, read: rightward shift of CGP12177 response.
Where [11] appears, read: rightward shift of cimaterol response, Gaddum, or Stephenson (a).

One may read the EC50 as the midpoint of the concentration-response curve. Usually Kd stands for a measure of binding affinity in units of concentration.

T1 sequence (P08588 whole entry): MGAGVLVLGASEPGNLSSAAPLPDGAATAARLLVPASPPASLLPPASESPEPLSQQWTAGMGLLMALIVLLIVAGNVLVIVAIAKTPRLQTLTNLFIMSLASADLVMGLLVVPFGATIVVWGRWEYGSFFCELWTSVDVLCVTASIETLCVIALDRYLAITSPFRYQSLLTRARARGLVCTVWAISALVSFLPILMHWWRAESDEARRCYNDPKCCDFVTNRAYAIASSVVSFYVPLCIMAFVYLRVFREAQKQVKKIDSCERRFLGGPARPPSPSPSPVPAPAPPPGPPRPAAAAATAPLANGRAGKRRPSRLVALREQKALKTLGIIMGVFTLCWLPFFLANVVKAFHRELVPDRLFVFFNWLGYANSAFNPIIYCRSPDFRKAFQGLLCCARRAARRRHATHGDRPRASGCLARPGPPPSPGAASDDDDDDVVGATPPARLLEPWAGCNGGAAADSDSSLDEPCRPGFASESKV
T2 sequence (P07550 whole entry): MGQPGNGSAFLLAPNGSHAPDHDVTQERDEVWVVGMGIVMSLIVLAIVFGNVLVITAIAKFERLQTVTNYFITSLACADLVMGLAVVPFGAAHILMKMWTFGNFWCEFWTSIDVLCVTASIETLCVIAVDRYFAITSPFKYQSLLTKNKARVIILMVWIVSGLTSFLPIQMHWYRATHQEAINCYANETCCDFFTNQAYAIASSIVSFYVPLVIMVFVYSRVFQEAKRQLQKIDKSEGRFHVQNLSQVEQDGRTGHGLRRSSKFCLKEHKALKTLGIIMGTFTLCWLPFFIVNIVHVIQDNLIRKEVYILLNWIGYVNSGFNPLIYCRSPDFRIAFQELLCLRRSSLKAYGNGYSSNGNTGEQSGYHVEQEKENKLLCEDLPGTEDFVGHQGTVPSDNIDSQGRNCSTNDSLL

Consider `C=CCc1ccccc1OCC(O)CNC(C)C` (racemic) [Alprenolol, (RS)-1-(2-allylphenoxy)-3-(isopropylamino)propan-2-ol, reference compound], for which, at β1-AR [1], the “Pharmacological Outcome: CCE/IBS conformation” value is “Agonist (biphasic)” and the “Pharmacological Outcome: SCE conformation” value was “Agonist (biphasic)”. Besides, on β1-AR [2] (CHO-β1-CRE-luciferase cells), the “% isop” value turned out to be 3.2 ± 0.8%. Further, the “% at EC501” value on β1-AR [3] (% of the response occurring via first component) amounted to 62.5 ± 2.7%. The “% Isoprenaline” value at β1-AR [3] amounted to 56.7 ± 3.7%.
`C=CCOc1ccccc1OCC(O)CNC(C)C` (racemic) [Oxprenolol, (RS)-1-[2-(allyloxy)phenoxy]-3-(isopropylamino)propan-2-ol, reference compound]: on β1-AR [1], the “Pharmacological Outcome: CCE/IBS conformation” value was “Agonist (biphasic)” and the “Pharmacological Outcome: SCE conformation” value was “Agonist (biphasic)”. The “% Isoprenaline” value at human β2-AR [4] worked out at 40.1 ± 2.3%.
Consider `CC(C)NCC(O)COc1cccc2[nH]ccc12` (racemic) [Pindolol, (RS)-1-[(1H -indol-4-yl)oxy]-3-(isopropylamino)propan-2-ol, reference compound], for which, at β1-AR [1], the “Pharmacological Outcome: CCE/IBS conformation” value is “Agonist (biphasic)” and the “Pharmacological Outcome: SCE conformation” value is listed as “Agonist (biphasic)”. The “% isop” value on β1-AR [2] (CHO-β1-CRE-luciferase cells) came to 11.7 ± 1.4%.
`CC(C)(Cc1c[nH]c2ccccc12)NCC(O)COc1ccccc1C#N` (stereo not drawn) [Bucindolol, 2-[2-hydroxy-3-[[2-(1H -indol-3-yl)-1,1-dimethyl-ethyl]amino]propoxy]benzonitrile, reference compound]: the “Pharmacological Outcome: CCE/IBS conformation” value on β1-AR [1] is “Agonist (biphasic)”. At β1-AR [1], the “Pharmacological Outcome: SCE conformation” value is listed as “Agonist (biphasic)”. Also, the “% at EC501” value at β1-AR [2] (% of the response occurring via first component, CHO-β1-CRE-luciferase cells) turned out to be 23.3 ± 2.4%. Also, the concentration for a half-maximal effect (EC50) is 0.537 nM at β1-AR [2] (EC501 (log EC50 of first component), biphasic concentration response, CHO-β1-CRE-luciferase cells); 57.5 nM on β1-AR [2] (EC502 (log EC50 of second component), biphasic concentration response, CHO-β1-CRE-luciferase cells); 0.2 nM on human β2-AR [4]; 0.759 nM on β1-AR [3]. For the same compound, the “% isop” value at β1-AR [2] (CHO-β1-CRE-luciferase cells) was 23.7 ± 1.7%. Moreover, the “% Isoprenaline” value at human β2-AR [4] came out at 70.3 ± 2.0%; at β1-AR [3], 84.5 ± 2.4%. Further, the dissociation constant (Kd) is 0.575 nM on β1-AR [5] and 0.0513 nM on human β2-AR [6]. Further, the β2-Selectivity on human β2-AR [6] was found to be 11.2 fold.
`CC(C)(C)NC[C@H](O)COc1cccc2c1CCCC2=O` [VL03, 5-[(2S)-3-(tert-butylamino)-2-hydroxypropoxy]-3,4-dihydro-2H -naphthalen-1-one]: the “Evidence of SCE activation” value at β1-AR [1] is recorded as “None”. Moreover, the “Pharmacological Outcome: CCE/IBS conformation” value on β1-AR [1] was “High-affinity neutral antagonist”. Besides, on β1-AR [1], the “Pharmacological Outcome: SCE conformation” value was “Low-affinity neutral antagonist”. The “Log EC50” value at β1-AR [2] (setting [7]), on human β2-AR [4] and at β1-AR [3] was “No response” each time. The values for the Schild slope on human β2-AR [4] (CGP12177 as agonist), at human β2-AR [4] (cimaterol as agonist) and at β1-AR [3] (cimaterol as agonist) were 1.00 ± 0.03, 0.99 ± 0.04 and 0.96 ± 0.05, respectively. The Kd at human β2-AR [4] (Log KD (CGP12177 as Agonist), rightward shift of CGP12177 response) is 0.0759 nM; on human β2-AR [4] (setting [8]), 0.0468 nM; at β1-AR [5], 5.13 nM; at β1-AR [3] (Log KD Catecholamine conformation Cimaterol as Agonist, rightward shift of cimaterol response, Gaddum, or Stephenson (a)) it was 1.78 nM; on β1-AR [3] (Log KD Secondary Conformation CGP12177 as Agonist, rightward shift of CGP12177 response), 562 nM.
With `CC(C)(C)NC[C@@H](O)COc1cccc2c1CCC(=O)N2` [VL04, 5-[(2R)-3-(tert-butylamino)-2-hydroxypropoxy]-3,4-dihydro-1H -quinolin-2-one], on human β2-AR [4], the “% Isoprenaline” value turned out to be 55.1 ± 2.7%.
For `COc1ccccc1OC[C@@H](O)CNC(C)C` [VL05, (2S)-1-(2-methoxyphenoxy)-3-(propan-2-ylamino)propan-2-ol], the “Evidence of SCE activation” value on β1-AR [1] is on record as “None”. Further, the “Pharmacological Outcome: CCE/IBS conformation” value on β1-AR [1] is given as “Agonist”. In addition, the values for the Kd at β1-AR [2], on β1-AR [5] and on human β2-AR [6] were 10 nM, 24 nM and 12.3 nM, respectively. The EC50 on β1-AR [2] (Log EC50, agonist action, CHO-β1-CRE-luciferase cells, given as log EC50 (negative)) was 64.6 nM; at human β2-AR [4], 3.8 nM; on β1-AR [3], 5.01 nM. Moreover, the “Log ratio of affinities” value at β1-AR [2] (catecholamine vs secondary conformation, CHO-β1-CRE-luciferase cells) was over 3. At β1-AR [2] (CHO-β1-CRE-luciferase cells), the “% isop” value is reported as 9.7 ± 0.8%. At β1-AR [2] (setting [9]), the “Log KD Secondary Conformation, CGP12177 as agonist” value (“Log KD Secondary Conformation” below) is recorded as “No shift 10 μM”. Moreover, the “% Isoprenaline” value is 63.2 ± 3.2% at human β2-AR [4] and 62.3 ± 3.8% at β1-AR [3]. Moreover, the β2-Selectivity on human β2-AR [6] was determined as 1.9 fold.
Take `Cc1cc(C)c(OC[C@@H](O)CNC(C)C)c(C)c1` [VL08, (2S)-1-(propan-2-ylamino)-3-(2,4,6-trimethylphenoxy)propan-2-ol]: the “Evidence of SCE activation” value at β1-AR [1] is “None”. Also, the “Pharmacological Outcome: CCE/IBS conformation” value on β1-AR [1] is reported as “No receptor interaction”. Further, the “Pharmacological Outcome: SCE conformation” value on β1-AR [1] was “No receptor interaction”. The “Log EC50” value on β1-AR [2] (setting [7]), on human β2-AR [4] and at β1-AR [3] was “No response” throughout. The “Log KD Secondary Conformation” value on β1-AR [2] (setting [9]) and at β1-AR [3] (setting [10]) was “No shift 10 μM” each time. Further, the Kd was 2090 nM on human β2-AR [4] (setting [8]) and 3240 nM on human β2-AR [6]. The “Log KD (CGP12177 as Agonist)” value at human β2-AR [4] (setting [10]) was “No shift 10 μM”. The “Log KD Catecholamine conformation Cimaterol as Agonist” value on β1-AR [3] (setting [11]) is recorded as “No shift 10 μM”.
With `OCCOc1ccc(CNCCc2c[nH]c3ccccc23)cc1` [VL11, 2-[4-[[2-(1H -indol-3-yl)ethylamino]methyl]phenoxy]ethanol], on β1-AR [1], the “Evidence of SCE activation” value is “None”. Moreover, on β1-AR [1], the “Pharmacological Outcome: CCE/IBS conformation” value was “No receptor interaction”. The “Pharmacological Outcome: SCE conformation” value on β1-AR [1] was “No receptor interaction”. The “Log EC50” value on β1-AR [2] (setting [7]), at human β2-AR [4] and at β1-AR [3] was “No response” throughout. For the same compound, the “Log KD Secondary Conformation” value on β1-AR [2] (setting [9]) and at β1-AR [3] (setting [10]) was “No shift 10 μM” throughout. For the same compound, the “Log KD (CGP12177 as Agonist)” value at human β2-AR [4] (setting [10]) was “No shift 10 μM”. Moreover, the “Log KD (Cimaterol as Agonist)” value at human β2-AR [4] (setting [11]) is “No shift 10 μM”. Moreover, the “Log KD Catecholamine conformation Cimaterol as Agonist” value on β1-AR [3] (setting [11]) is given as “No shift 10 μM”. Also, at human β2-AR [6], binding was characterised by a dissociation constant (Kd) of 8910 nM.
In the case of `C=CCc1ccccc1OCCNCCCOC` [VL12, 3-methoxy-N -[2-(2-prop-2-enylphenoxy)ethyl]propan-1-amine], the “Evidence of SCE activation” value on β1-AR [1] was “None”. In addition, on β1-AR [1], the “Pharmacological Outcome: CCE/IBS conformation” value is “No receptor interaction”. For the same compound, the “Pharmacological Outcome: SCE conformation” value at β1-AR [1] is “No receptor interaction”. Besides, the “Log EC50” value on β1-AR [2] (setting [7]), at human β2-AR [4] and on β1-AR [3] was “No response” each time. For the same compound, the “Log KD Secondary Conformation” value on β1-AR [2] (setting [9]) and at β1-AR [3] (setting [10]) was “No shift 10 μM” in each case. Also, the “Log KD Catecholamine conformation Cimaterol as Agonist” value at β1-AR [2] (rightward shift of cimaterol response, CHO-β1-CRE-luciferase cells, Gaddum, or Stephenson for partial agonists (a)) is “No shift at 10 μM”; at β1-AR [3] (setting [11]), “No shift 10 μM”. The dissociation constant (Kd) on human β2-AR [4] (setting [8]) is 3720 nM; at human β2-AR [6] it was 6760 nM. On human β2-AR [4] (setting [10]), the “Log KD (CGP12177 as Agonist)” value is “No shift 10 μM”.

(Values after PMC12799587, “Predicting compounds that interact with the 2 known agonist-induced conformations of the human β1-adrenoceptor” (Molecular Pharmacology, 2025).)
